Assay results published in patent publication US20200079814A1, “Nucleotides comprising an N-[(S)-1-cyclobutoxycarbonyl]phosphoramidate moiety and analogs and application thereof” (priority 2017, published 2020).
Where “and” joins values, the source holds several entries; their conditions need not be identical. Identical values can stand only once. Like-named read-outs stand apart in the source and are kept apart here. Marks after values point to notes of the source that are not given here.

Tests used:
HCV = settings: literature; cited from earlier work
[1] = system: HCV replicon, genotype 1b (gT1b HCV NS5B); settings: cited from earlier work; for EC50: from hcvdruginfo.ca
[2] = from M. J. Sofia et al. J. Med. Chem. 2010; cited from earlier work
[3] = from M. J. Sofia et al. J. Med. Chem. 2010; cited from earlier work; remark: listed apart in the source
[4] = from M. J. Sofia et al. J. Med. Chem. 2010; cited from earlier work; remark: listed apart in the source
[5] = from M. J. Sofia et al. J. Med. Chem. 2010; cited from earlier work; remark: listed apart in the source
SupT1 cells = experiment: Cytotoxicity in uninfected SupT1 cells (XTT reagent); assay type: cell-based
Protocol: (§1) The antiviral activity of tested compounds was evaluated on the T-lymphocytes line, SupT1. The cells were infected with the HIV strain NL4.3 carrying a gene encoding the green fluorescent protein (NL4.3-GFP). A virus preparation was obtained by means of transfection of the 293T cells of […] DNA. After 48 hours of transfection, the medication was frozen and stored until being used. To increase the efficiency of infection, the suspension of SupT1 cells was sedimented from the infection mixture by centrifugation. Tested compounds were added to the cells immediately before adding the virus. After 2 hours of incubation, the infection mixture was replaced by a fresh culture medium with tested compounds. The efficiency of infection was evaluated after 45 hours by computing the percentage of fluorescence-bright cells against uninfected cell cultures. Concurrently, the cytotoxicity of tested compounds was evaluated in the same, but uninfected, cell line SupT1 using the XTT reagent. To determine antiviral activity and cytotoxicity, serial tenfold dilutions of the preparations were used (starting with 10 j-M for antiviral activity and from 100 μM for cytotoxicity). DMSO (0.1%) was used for negative control. The values of EC50, CC50 and SI (selectivity index) were found. The quality of tests was evaluated based on the following controls: signal to background ratio, integrase inhibitor raltegravir (1 μM), and reproducibility of test results. Emetine (0.03, 0.09, and 0.2 μM) was used as the reference for cytotoxicity evaluation.

[6] = system: HIV strain NL4.3 carrying the GFP-reporter (NL4.3-GFP); experiment: microbe, parasite or virus in culture; assay type: cell-based; settings: for EC50: Human immunodeficiency virus 1, SUP-T1, 45 h; for SI = CC50/EC50: SupT1 cells
Protocol: as §1

[7] = pooled human blood plasma, 1 μM, 37° C.
Protocol: (§2) Initial compositions comprising the prodrug of formula 1B.7 (the tested compounds) were prepared with a concentration of 10 mM in DMSO. From said compositions, 100-fold working solutions were prepared with a concentration of 100 μM in a mixture of acetonitrile:water with a volumetric ratio of 1:1.
(§3) The samples were then centrifuged, and the supernatant (150 μl) was sampled for analysis […]. The incubation was performed in two replicates, with each sample measured twice.
(§4) Samples were analyzed using an HPLC-MS/MS technique developed for each tested prodrug, wherein the chromatographic system 1290 Infinity II (Agilent Technologies) was combined with the tandem mass spectrometer QTRAP5500 (AB Sciex). […] Scanning in a total ion current mode (MS1) allowed us to identify a molecular ion for each compound, and basic product ions were recorded in MS2 mode. […] In quantitative chromatogram processing, the most intensive MRM transition was used for the analyte and the internal standard. […]
(§5) Half-life (T1/2) was found from the kinetics of tested prodrug elimination in an antiviral composition during incubation in a biological matrix. […] From linear dependence of log normalized areas of chromatographic peaks on time, the constant of elimination rate was calculated (k is linear section slope).

[8] = Stability in human liver S9 fraction
Protocol: as §2, §3, §4, §5

physchem = settings: for half-life at 1 μM: simulated gi fluid
Protocol: as §2
b) Stability in Artificial Gastric and Intestinal Juices.
The tested composition comprising the prodrug of formula 1B.7 in a final concentration of 1 μM was incubated in artificial gastric juice (0.2% NaCl in 0.7% v/v HCl) and artificial intestinal juice (0.05M KH2PO4, pH 6.75). The incubation was performed in a Vortemp56 shaking incubator at 37° C. with stirring at a rate of 300 rev/min. […] The samples were then centrifuged, and the supernatant (150 μl) was sampled for analysis […]. The incubation was performed in two replicates, with each sample measured twice.
Samples were analyzed using an HPLC-MS/MS technique developed for each tested prodrug, wherein the chromatographic system 1290 Infinity II (Agilent Technologies) was combined with the tandem mass spectrometer QTRAP5500 (AB Sciex). When developing conditions for mass-spectrometric detection, the solutions of tested compounds in a mixture of acetonitrile-water 1:1 with a concentration of 100 ng/ml were injected directly into the mass spectrometer using a syringe pump with electrospray ionization in a positive ion mode. Scanning in a total ion current mode (MS1) allowed us to identify a molecular ion for each compound, and basic product ions were recorded in MS2 mode. Then, to attain maximum sensitivity, the MS/MS technique was optimized in MRM mode. In quantitative chromatogram processing, the most intensive MRM transition was used for the analyte and the internal standard. Separation was carried out by means of linear gradient elution chromatography on a YMC Triart C18 column (50×2 mm, 1.9 μm) in a mobile phase consisting of 0.1% formic acid in water and 0.1% formic acid in acetonitrile. Tolbutamide (Fluka) was used as the internal standard.
Half-life (T1/2) was found from the kinetics of tested prodrug elimination in an antiviral composition during incubation in a biological matrix. The computations were based on the values of chromatographic peak areas for compounds in test samples normalized to the internal standard signal. From linear dependence of log normalized areas of chromatographic peaks on time, the constant of elimination rate was calculated (k is linear section slope).

[9] = system: Huh7 human hepatocellular carcinoma cell line; settings: from M. J. Sofia et al. J. Med. Chem. 2010; cited from earlier work
[10] = Cytotoxicity in uninfected SupT1 cells (XTT reagent); assay type: cell-based; settings: human, uninfected SupT1 cells (T-lymphocyte line)
Protocol: as §1

[11] = system: HCV replicon, genotype 1b (gT1b HCV NS5B); experiment: Anti-HCV activity in Huh7 cells stably transfected with an HCV replicon; assay type: cell-based
Protocol: The antiviral activity of tested compositions comprising prodrugs was evaluated using an Huh7 human hepatocellular carcinoma cell line stably transfected with an HCV replicon. A cell suspension in a complete culture medium (DMEM 1X, Cellgro; cat. #10-013-CV) was transferred into 96-well plates (50 μl per well) with a final density of 7500 cells per well. The serial dilutions of tested prodrugs were prepared from a fresh 200-fold generic solution in DMSO with 11 concentration points dilution for each step, starting from 20 nM in a complete medium and were used as 2-fold solutions in two replicates. Minimum 4 hours after planting the cells, 50 μl of serial prodrug dilutions was added to each well. […] The plate with cells was incubated for 3 days at 37° C. under humidified 5% CO2. Upon completion of incubation, the medium was removed by turning the plate over and shaking it carefully. The cells were fixed for one minute with 100 μl of a 1:1 acetone:methanol solution, washed 3 times with a phosphate buffer (PBS), and blocked for 1 h at room temperature using a 10% fetal bovine serum (FBS) in PBS (150 μl/well). […] The reaction was stopped by 2N H2SO4 (100 μl/well), and OD490 was measured using the multifunctional reader Victor^3 V 1420 (Perkin Elmer). The values of EC50 for tested prodrugs were measured from an activity curve plotted using the GraphPad Prizm software.

[12] = gT1b, from M. J. Sofia et al. J. Med. Chem. 2010

For `COc1nc(N)nc2c1ncn2C1O[C@H](COP(=O)(N[C@@H](C)C(=O)OC(C)C)Oc2ccccc2)[C@@H](O)[C@@]1(C)F` (stereo partly shown) [PSI-353661], the EC90 (HCV) is listed as 8 nM.

In the case of `C[C@H](NP(=O)(OC[C@H]1O[C@@H](n2ccc(=O)[nH]c2=O)[C@](C)(F)[C@@H]1O)Oc1ccccc1)C(=O)OC1CCCCC1` (stereo partly drawn) [Prodrug 2.1, cyclohexyl (S)-2-{[(2R,3R,4R,5R)-5-(2,4-dioxo-3,4-dihydro-2H-pyrimidin-1-yl)-4-fluoro-3-hydroxy-4-methyl-tetrahydrofuran-2-ylmethoxy]-phenoxy-phosphorylamino}-propionate], the EC90 [1, 12] is given as 250 nM, the “T1/2 SIF” value [2] is given as >20* h and the T1/2 human plasma [3] is given as >24* h. For the same compound, the “T1/2 SGF” value [4] was 17* h and the “T1/2 human S9” value [5] was 1.4 h.

With `CC(C)OC(=O)[C@H](C)N[P@](=O)(CO[C@H](C)Cn1cnc2c(N)ncnc21)Oc1ccccc1` [TAF, temofovir alafenamide] the CC50 (SupT1 cells) was over 100000 nM, the EC50 [6] was 35 nM and the “SI = CC50/EC50” value [6] was 2857.

In the case of `C[C@H](N[P@](=O)(OC[C@H]1O[C@@H](n2ccc(=O)[nH]c2=O)[C@](C)(F)[C@@H]1O)Oc1ccccc1)C(=O)OC1CCC1` [Prodrug 1B.7, (S)-cyclobutyl 2-{(S)-[(2R,3R,4R,5R)-5-(3,4-dihydro-2,4-dioxo-2H-pyrimidin-1-yl)-3-hydroxy-4-methyl-4-fluoro-tetrahydrofuran-2-ylmethoxy]-phenoxy-phosphorylamino}-propanoate], the T1/2 human plasma [7] is reported as over 24 h, the “metabolic rate in human S9 fraction, times faster than Sovaldi” value ([8]; versus Sovaldi) is reported as 11 times and the “metabolic rate in human S9 fraction, times faster than compound 2.1” value ([8]; versus compound of formula 2.1) is reported as 28 times. For the same compound, the “T1/2 SGF” value (physchem; artificial gastric juice, 1 μM, 37° C.) was 12.7 h, the “T1/2 SIF” value (physchem; artificial intestinal juice, 1 μM, 37° C.) was over 24 h and the half-life at 1 μM (physchem) was 12.7 to 17 h. It also gave a half-life at 1 μM (physchem; pH 6.75) of over 20 h.

For `CC(C)OC(=O)[C@H](C)NP(=O)(OC[C@H]1O[C@@H](n2ccc(=O)[nH]c2=O)[C@](C)(F)[C@@H]1O)Oc1ccccc1` (stereo partly drawn) [Sovaldi ®, isopropyl (S)-2-{[(2R,3R,4R,5R)-5-(2,4-dioxo-3,4-dihydro-2H-pyrimidin-1-yl)-4-fluoro-3-hydroxy-4-methyl-tetrahydrofuran-2-ylmethoxy]-phenoxy-phosphorylamino}-propionate], the EC90 [1, 12] is listed as 520 nM, the EC90 ([1]; gT1b, from M. J. Sofia et al. J. Med. Chem. 2010, listed as Sovaldi®) is listed as 590 nM and the EC50 ([1]; gT1b) is listed as 45 to 170 nM. The EC90 ([1]; genotype 1b (gT1b) HCV) was 590 nM, the EC50 ([1]; genotype 1b (gT1b) HCV) was 45 to 170 nM and the “T1/2 SIF” value [2] was >24* h. The CC90 [9] was over 100000 nM, the T1/2 human plasma [3] was >24* h and the “T1/2 SGF” value [4] was 22.0* h. The “T1/2 human S9” value [5] was 0.54 h and 0.57 h.

For `C[C@H](Cn1cnc2c(N)ncnc21)OC[P@@](=O)(N[C@@H](C)C(=O)OC1CCC1)Oc1ccccc1` [Prodrug 1A.1, (S)-cyclobutyl 2-((S)-(((R)-1-(6-amino-9H-purin-9-yl)propan-2-yloxy)methyl) (phenoxy)phosphorylamino)-propanoate], the CC50 [10] was over 100000 nM, the EC50 [6] was 27 nM and the “selectivity, times higher than TAF” value ([6]; SupT1 HIV test, versus TAF) was 1.4 times. For the same compound, the “SI = CC50/EC50” value [6] was over 3704.

In the case of `COc1nc(N)nc2c1ncn2[C@@H]1O[C@H](COP(=O)(N[C@@H](C)C(=O)OCC(C)(C)C)Oc2cccc3ccccc23)[C@@H](O)[C@@]1(C)O` (stereo partly shown) [INX-08189], the EC50 (HCV) is listed as 10 nM.

In the case of `C[C@H](Cn1cnc2c(N)ncnc21)OC[P@](=O)(N[C@@H](C)C(=O)OC1CCC1)Oc1ccccc1` [Prodrug 1A.2, (S)-cyclobutyl 2-((R)-(((R)-1-(6-amino-9H-purin-9-yl)propan-2-yloxy)methyl) (phenoxy)phosphorylamino)-propanoate], the CC50 [10] is reported as over 100000 nM, the EC50 [6] is reported as 38 nM and the “SI = CC50/EC50” value [6] is reported as over 2632.

For `CC(C)(CO)C(=O)SCCOP(=O)(NCc1ccccc1)OC[C@H]1OC(n2cnc3c(=O)[nH]c(N)nc32)[C@](C)(O)[C@@H]1O` (stereo partly shown) [IDX-184], the EC50 (HCV) is listed as 400 nM.

In the case of `C[C@H](N[P@](=O)(OC[C@H]1O[C@@H](n2ccc(=O)[nH]c2=O)[C@](C)(F)[C@@H]1O)Oc1ccccc1)C(=O)OC1CC1` [Prodrug 2.2, (S)-cyclopropyl 2-((S)-(((2R,3R,4R,5R)-5-(2,4-dioxo-3,4-dihydropyrimidin-1(2H)-yl)-3-hydroxy-4-methyl-4-fluoro-tetrahydrofuran-2-yl)methoxy)-(phenoxy)-phosphorylamino)-propanoate], the EC90 ([11]; 10% FBS) is reported as 410 nM and the EC50 ([11]; Hepatitis C virus, Huh-7, 10% FBS) is reported as 73 nM.
